Experimental data published in patent publication US11684614B2, “Formulations of hydroxypyridonate actinide/lanthanide decorporation agents” (priority 2017, dated 2023).
“And” between values parts separate entries of the source, which are not always exact repeats. Identical values can stand only once.

Test: Repeated-treatment efficacy for removing an intravenous dose of 238Pu (excretion, tissue retention, clinical observations), female and male arms
Format: in vivo, Swiss-Webster mice
Settings: listed as 3,4,3-LI(1,2-HOPO); for % Recovered Dose - Feces per Day: male mice
Description: The objective of this study was to characterize the efficacy of 3,4,3-L1(1,2-HOPO) at enhancing elimination from an internal plutonium burden in female and male Swiss-Webster mice administered a soluble citrate complex of ^238Pu and treated multiple times, starting at 24 hours after the exposure. Efficacy was evaluated by comparing the tissue contents, urinary and fecal excretions of ^238Pu in treated animals versus untreated animals.
The medical countermeasure 3,4,3-L1(1,2-HOPO) was administered parenterally (ip) or orally (po) via consecutive injections or gavages (six daily or twelve twice daily) starting at 24 hours post contamination at the following four selected doses: 30 μmol/kg ip, 150 μmol/kg po, 300 μmol/kg po, and 600 μmol/kg po (equivalent to respective approximate human doses range of […], using the accepted conversion system of mouse doses into human equivalent doses—HED—based on body surface area). Oral doses also included the permeability enhancer selected during formulation development work.
• Challenge isotope: ^238Pu • Challenge dose: 25 nCi (i.e., approximately 0.8 μCi/kg) • Route of contamination: Intravenous (iv) tail-vein • Route of treatment: Intraperitoneal Injection (ip) or Oral (po) • Frequency of treatment: Multiple (once- or twice-daily for 6 days) doses, starting 24 hr postcontamination • Treatment dose calculation: Dose calculations (mg/kg or μmol/kg) for the decorporation agent were based on the individual body weight measured after contamination. • Study Duration: 11 days, in-life
c. […] Test article and control dose formulations were prepared within 1 day of dose administration, by weighing out the appropriate amount of test article, dispersing in vehicle. For ip solutions, the test article was used alone, while for oral suspensions, a mixture of test article and excipient (90:10, w:w) was used. The pH was adjusted to 7.0-7.4 for ip administration and 5.0-5.5 for oral administration with sterile NaOH. Dose formulations were prepared at room temperature and filter-sterilized. • Storage: 2-8° C.; refrigerated; protected from light. • Characterization: The concentration of each test article formulation was verified by high-performance liquid chromatography-mass spectrometry. • Test Article Handling: Test, reference, and control article formulations were handled with the use of eye protection, gloves, and a protective laboratory coat. • Correct Dose Assurance: The test article was weighed with calibrated balances. The administration of each dose formulation was properly documented, and the amount administered to each animal recorded.
e. Experimental Procedures (In-Life Evaluations and Euthanasia) • Contamination: Single administration by intravenous (iv) tail-vein injection (0.2 mL injection volume) under isoflurane anesthesia. Three standard 0.2 mL injections were performed into polyethylene bottles and pre-loaded with aliquots of concentrated nitric acid on each injection day. Six female and six male mice were culled for necropsy 1 hr post-contamination and were used as standards. A11 standards were processed and counted together with the final samples to allow verification of the contamination dose. • Dose Administration: Single administration by intraperitoneal injection (ip) or oral gavage (po) under isoflurane anesthesia. • Mortality/Morbidity: Assessed at least once daily. • Clinical Observations: Recorded once daily (4 hr post-dose on day of treatment), or more often as clinical signs warranted. […]

[1] = male arm table, Day 11 necropsy, animal group M

O=C(NCCCN(CCCCN(CCCNC(=O)c1cccc(=O)n1O)C(=O)c1cccc(=O)n1O)C(=O)c1cccc(=O)n1O)c1cccc(=O)n1O [3,4,3-L1(1,2-HOPO)]
% Recovered Dose Urine per Day, Day 5 [1]: 0.66% and 0.36% and 0.19% and 0.53% and 0.60% and 0.47% and 0.30% and 0.22% | % Recovered Dose Urine per Day, Day 6 [1]: 0.38% and 0.35% and 0.46% and 0.26% and 0.36% and 0.41% and 0.12% and 0.61% | % Recovered Dose Urine per Day, Day 7 [1]: 0.73% and 0.69% and 0.76% and 0.65% and 0.63% and 0.83% and 0.47% and 0.38% | % Recovered Dose Urine per Day, Day 8 [1]: 0.40% and 0.36% and 0.42% and 0.32% and 0.43% and 0.34% and 0.74% and 0.33% | % Recovered Dose Urine per Day, Day 9 [1]: 0.40% and 0.45% and 0.37% and 0.42% and 0.61% and 0.41% and 0.48% | % Recovered Dose Urine per Day, Day 10 [1]: 0.12% and 0.23% and 0.16% and 0.28% and 0.21% and 0.62% and 0.46% and 0.27% | % Recovered Dose Urine per Day, Day 11 [1]: 0.35% and 0.30% and 0.22% and 0.20% and 0.36% and 0.43% and 0.26% and 0.42% | % Recovered Dose - Feces per Day (group B, feces day 1, Day 7 necropsy): 4.37% and 8.32% and 7.75% and 4.30% | % Recovered Dose - Feces per Day (group B, feces day 2, Day 7 necropsy): 7.66% and 12.16% and 9.09% and 13.43% | % Recovered Dose - Feces per Day (group B, feces day 3, Day 7 necropsy): 2.15% and 3.85% and 3.59% and 3.55% | % Recovered Dose - Feces per Day (group B, feces day 4, Day 7 necropsy): 3.14% and 4.08% and 1.98% and 4.25% | % Recovered Dose - Feces per Day (group B, feces day 5, Day 7 necropsy): 1.34% and 2.97% and 0.93% and 2.49% | % Recovered Dose - Feces per Day (group B, feces day 6, Day 7 necropsy): 2.28% and 6.44% and 1.47% and 2.02% | % Recovered Dose - Feces per Day (group B, feces day 7, Day 7 necropsy): 1.46% and 2.68% and 1.21% and 2.10% | % Recovered Dose - Feces per Day (group C, feces day 1, Day 7 necropsy): 8.78% and 6.29% and 9.94% and 4.97% | % Recovered Dose - Feces per Day (group C, feces day 2, Day 7 necropsy): 15.31% and 12.37% and 22.78% and 14.58% | % Recovered Dose - Feces per Day (group C, feces day 3, Day 7 necropsy): 2.49% and 5.42% and 4.54% and 6.24% | % Recovered Dose - Feces per Day (group C, feces day 4, Day 7 necropsy): 3.01% and 3.04% and 5.87% and 3.77% | % Recovered Dose - Feces per Day (group C, feces day 5, Day 7 necropsy): 1.70% and 2.00% and 3.00% and 2.15% | % Recovered Dose - Feces per Day (group C, feces day 6, Day 7 necropsy): 1.91% and 2.24% and 2.37% and 2.32% | % Recovered Dose - Feces per Day (group C, feces day 7, Day 7 necropsy): 1.21% and 1.32% and 1.95% and 1.31% | % Recovered Dose - Feces per Day (group E, feces day 1, Day 7 necropsy): 6.19% and 11.96% and 7.28% and 11.97% | % Recovered Dose - Feces per Day (group E, feces day 2, Day 7 necropsy): 19.35% and 15.22% and 16.75% and 13.98% | % Recovered Dose - Feces per Day (group E, feces day 3, Day 7 necropsy): 3.91% and 2.72% and 3.36% and 3.87% | % Recovered Dose - Feces per Day (group E, feces day 4, Day 7 necropsy): 5.36% and 3.66% and 5.40% and 5.25% | % Recovered Dose - Feces per Day (group E, feces day 5, Day 7 necropsy): 1.97% and 1.84% and 1.67% and 1.79% | % Recovered Dose - Feces per Day (group E, feces day 6, Day 7 necropsy): 2.01% and 2.66% and 2.92% and 1.87% | % Recovered Dose - Feces per Day (group E, feces day 7, Day 7 necropsy): 2.11% and 1.97% and 2.22% and 1.18% | % Recovered Dose - Feces per Day (group F, feces day 1, Day 7 necropsy): 6.91% and 7.78% and 14.62% and 9.13% | % Recovered Dose - Feces per Day (group F, feces day 2, Day 7 necropsy): 14.25% and 13.00% and 16.24% and 15.40% | % Recovered Dose - Feces per Day (group F, feces day 3, Day 7 necropsy): 13.31% and 3.36% and 3.68% and 5.91% | % Recovered Dose - Feces per Day (group F, feces day 4, Day 7 necropsy): 4.17% and 4.09% and 3.98% and 3.52% | % Recovered Dose - Feces per Day (group F, feces day 5, Day 7 necropsy): 1.77% and 2.34% and 1.75% and 1.78% | % Recovered Dose - Feces per Day (group F, feces day 6, Day 7 necropsy): 1.60% and 2.84% and 1.72% and 1.54% | % Recovered Dose - Feces per Day (group F, feces day 7, Day 7 necropsy): 0.74% and 2.65% and 2.45% and 1.59%
